Where a SMILES comes first, the peptide text is derived from it. [ ]: non-standard residue; d: D form. pGlu = O=C1CC[C@@H](C(=O)O)N1; Nle = CCCC[C@H](N)C(=O)O; Nva = CCC[C@H](N)C(=O)O; Abu = CC[C@H](N)C(=O)O
Key:
[1] = system: locomotive activity induced by L-Dopa; test: Potentiation of locomotive activity induced on mice by L-Dopa; assay type: in vivo, male mice; conditions: Pargyline 40 mg/kg i.p., compound 20 mg/kg i.p., L-Dopa 100 mg/kg i.p., percent related to TRH; for Potentiation of the locomotive effect of L-Dopa % after 30': 30 min; for Potentiation of the locomotive effect of L-Dopa % after 60': 60 min; for Potentiation of the locomotive effect of L-Dopa % after 90': 90 min
Procedure: (2) Potentiation of locomotive activity induced on mice by L-Dopa (see The Thyroid Axis, Drugs and Behavior, p. 116, A. J. Prage Jr., Raven Press, New York, 1974)
The tests were performed on groups of 15 male mice each, weighing 18 to 22 g.
First, the animals were treated intraperitoneally with 40 mg/kg of N-methyl-N-propargyl-benzylamine (Pargyline), and then an intraperitoneal dosage of 20 mg/kg of TRH or a TRH-analogue was introduced, followed by an intraperitoneal dosage of 100 mg/kg of L-Dopa. The locomotive activity of the animals was recorded 30, 60 and 90 minutes after this treatment, and the level of potentiation was expressed in percents related to the results observed with TRH.

Reserpine hypothermy = test: Reserpine hypothermy-reversing effect on mice; assay type: in vivo, male mice; conditions: average of 10 animals; for Reserpine hypothermy reversing effect, Rectal temperature res.: 16 hours after reserpine 5 mg/kg i.p., before the tripeptide; for Reserpine hypothermy reversing effect, Rectal temperature norm.: prior to the administration of reserpine (baseline of the group); for Reserpine hypothermy reversing effect, Rectal temperature obs. time 1 h / Reserpine hypothermy reversing effect, Rectal temperature obs. time 2 h: reserpine 5 mg/kg i.p.; for Reserpine hypothermy reversing effect, Rectal temperature obs. time 1 h: 1 hour after 20 mg/kg of the tripeptide; for Reserpine hypothermy reversing effect, Rectal temperature obs. time 2 h: 2 hours after 20 mg/kg of the tripeptide
Procedure: (3) Reserpine hypothermy-reversing effect on mice (see B. M. Askew: Life Sci. 2, 725-730 /1963/)
The tests were performed on groups of 10 male mice each, weighing 18 to 22 g. Reserpine was administered into the animals in an intraperitoneal dosage of 5 mg/kg, and 16 hours later the animals were treated with 20 mg/kg of TRH or a tripeptide under examination.
The rectal temperature of the animals was measured prior to the administration of reserpine (marked by "norm." in Table 1), 16 hours after the administration of reserpine (marked by "res." in Table 1), furthermore 1 and 2 hours after the administration of the tripeptide (marked by "obs. time" in Table 1). The data listed in Table 1 are the averages of the temperatures observed on the 10 animals.

Ethanol narcosis = test: Ethanol narcosis; assay type: in vivo; conditions: mice, 4.5 g ethanol i.p., 10 min later compound 20 mg/kg i.p.; control 46.9 ± 2.17 min.
Procedure: (5) Ethanol narcosis (see J. M. Cott et al.: J. Pharm. Exp. Ther. 196, 594 /1976/) The tests were performed on groups of 20 mice of both sexes, each weighing 18 to 22 g. […] of ethanol were introduced intraperitoneally into the animals, and 10 minutes later the animals were treated intraperitoneally with 20 mg/kg of TRH or a tripeptide under examination. The sleeping periods of the animals were recorded, averages were calculated for the individual groups, and the results were expressed as percents related to the control group.

TSH = test: Hormonal activity (TSH effect) on rats; assay type: in vivo, male Wistar rats; conditions: 20 mg/kg i.v., plasma TSH by radioimmune assay 15 min after treatment, relative activity, TRH = 100%
Procedure: (6) Hormonal activity (TSH effect) on rats
The tests were performed on groups of 7 or 8 male Wistar rats each, weighing 200 g. The animals were treated intravenously with 20 mg/kg of TRH or a tripeptide under examination. The TSH reaction of the animals was evaluated 15 minutes after this treatment, by subjecting the blood plasma to radioimmune assay. The relative activities were calculated by the four-point method using a TPA 101 computer, and the activity of TRH was regarded as 100%.

[2] = system: sleeping caused by hexobarbital; test: Influencing the duration of sleeping caused by hexobarbital; assay type: in vivo, male mice; conditions: mice, hexobarbital sodium 60 mg/kg i.v., 10 min later compound 20 mg/kg i.p.; control 38.4 ± 1.36 min.
Procedure: (4) Influencing the duration of sleeping caused by hexobarbital The tests were performed on groups of 10 male mice each. The animals were treated intravenously with 60 mg/kg of hexobarbital sodium ([…]; Bayer), and 10 minutes later 20 mg/kg of TRH or a tripeptide under examination were administered intraperitoneally into the animals. The sleeping times of the animals were recorded, averages were calculated for the individual groups, and the results were expressed as percents related to the control group.

[3] = system: Haloperidol-induced catalepsy; test: Inhibition of Haloperidol-induced catalepsy on rats; assay type: in vivo, male Wistar rats; conditions: 40 mg/kg Haloperidol s.c., compound i.v. 120 min later, probit analysis, observation time per compound
Procedure: (1) Inhibition of Haloperidol-induced catalepsy on rats (see J. Delay and P. Deniker: Compt. Rend. Congr. Med. Alenistes Neurologistes, 19, 497, Luxembourg, 1952)
The tests were performed on male Wistar rats weighing 160 to 180 g.
40 mg/kg of 4-(p-chlorophenyl)-1-(3-/p-fluorobenzoyl/propyl)-piperidin-4-ol(Haloperidol) were administered subcutaneously into the animals, and 120 minutes after this treatment the animals were checked for the appearance of catalepsy. The rats were divided into groups of 10 animals each, and treated intravenously with TRH or the new TRH analogues. The animals belonging to the control group received physiological saline. The catalepsy-suspending effects of the individual compounds were determined 15, 30, 60, 90 and 120 minutes after the treatment. The animals that had not changed their position for 30 seconds after placing their fore-paw onto a 7 cm high column were regarded as cataleptic.

Row | Structure (SMILES) | Potentiation of the locomotive effect of L-Dopa % after 30' [1] | Potentiation of the locomotive effect of L-Dopa % after 60' [1] | Potentiation of the locomotive effect of L-Dopa % after 90' [1] | Reserpine hypothermy reversing effect, Rectal temperature res. (Reserpine hypothermy) | Reserpine hypothermy reversing effect, Rectal temperature norm. (Reserpine hypothermy) | Reserpine hypothermy reversing effect, Rectal temperature obs. time 1 h (Reserpine hypothermy) | Reserpine hypothermy reversing effect, Rectal temperature obs. time 2 h (Reserpine hypothermy) | Decrease of sleeping period (% related to the control animals) Ethanol (Ethanol narcosis) | TSH effect (TSH) | Decrease of sleeping period (% related to the control animals) Hexobarb. [2] | Inhibition of Haloperidol catalepsy ED50 [3]
1 | CC[C@H](NC(=O)[C@@H]1CCC(=O)N1)C(=O)N1CCC[C@H]1C(N)=O [Abu Pro H, L-Pyroglutamyl-L-α-aminobutyl-L-prolinamide] ([pGlu]-[Abu]-Pro-NH2) | 27% | 14% | 18% | 19.7 °C | 36.3 °C | 22.2 °C | 25.4 °C | 39% | 0.02% | 84% | 80 mg/kg
2 | NC(=O)[C@@H]1CCCCN1C(=O)[C@H](Cc1c[nH]cn1)NC(=O)[C@@H]1CCC(=O)N1 [His HPro H, L-Pyroglutamyl-L-histidyl-L-homoprolinamide] | 209% | 85% | 110% | 28.5 °C | 36.5 °C | 35.3 °C | 35.4 °C | 114% | 68.6% | 63% | 13.7 mg/kg
3 | CCNC(=O)[C@@H]1CCCN1C(=O)[C@H](CC(C)C)NC(=O)[C@@H]1CCC(=O)N1 [Leu Pro Et, L-Pyroglutamyl-L-leucyl-L-proline ethylamide] ([pGlu]-Leu-Pro-NHEt) | 102% | 90% | 201% | 28.7 °C | 36.2 °C | 30.7 °C | 33.4 °C | 65% | 0% | 126% | 56.6 mg/kg
4 | CCCC[C@H](NC(=O)[C@@H]1CCC(=O)N1)C(=O)N1CCC[C@H]1C(N)=O [Nleu Pro H, L-Pyroglutamyl-L-norleucyl-L-prolinamide] ([pGlu]-[Nle]-Pro-NH2) | 249% | 105% | 112% | 27.1 °C | 36.3 °C | 37.6 °C | 32.2 °C | 74% | 3.8% | 77% | 16.8 mg/kg
5 | CCC[C@H](NC(=O)[C@@H]1CCC(=O)N1)C(=O)N1CCC[C@H]1C(N)=O [Nva Pro H, L-Pyroglutamyl-L-norvalyl-L-prolinamide] ([pGlu]-[Nva]-Pro-NH2) | 254% | 156% | 214% | 25.9 °C | 36.2 °C | 36.4 °C | 32.0 °C | 77% | 0% | 114% | 11.4 mg/kg
6 | NC(=O)[C@@H]1CCCN1C(=O)[C@H](Cc1c[nH]cn1)NC(=O)[C@@H]1CCC(=O)N1 [TRH, L-pyroglutamyl-L-histidyl-L-prolinamide, reference compound] | 100% | 100% | 100% | 25.9 °C | 36.2 °C | 33.5 °C | 30.2 °C | 35% | 100.0% | 56% | 80 mg/kg
